Where two headings read alike, the source gives them in different places. Where a SMILES comes first, the peptide text is derived from it.
Tests used:
[1] = test system: HUVECs; experiment: NO production in HUVECs; format: cell-based, human; details: 24 h, mean ± SD
Description: NO and ET-1 productions in treated cells were obtained by employing human NO and ET-1 assay kits according to the manufacturers' protocol.

[2] = test system: HUVECs; experiment: ET-1 secretion of HUVECs; format: cell-based, human; details: NE 0.5 μM, 24 h, mean ± SD
Protocol: The NO and ET-1 contents of HUVECs were determined after a 24 h treatment of ACEi peptides (STAP3, STAP4, STAP7, and STAP11, respectively) ([34]). HUVECs received the plating process in 6-well plates and the treating process with Cap (1 μM), NE (0.5 μM), designed concentrations of ACEi peptides (100, 200, and 400 μM) for 24 h, or treated with both NE (0.5 μM) and 200 μM ACEi peptides for 24 h. NO and ET-1 productions in treated cells were obtained by employing human NO and ET-1 assay kits according to the manufacturers' protocol.

[3] = test system: HUVECs; experiment: HUVEC cell viability (MTT assay); format: cell-based, human
Protocol: After thawing, HUVECs were maintained in cultured flasks and cultured to confluence in DMEM containing 1% penicillin-streptomycin liquid, supplemented with 10% FBS. HUVECs received the culturing process at 37°C in a humidified 5% CO2 atmosphere ([34]).
The cytotoxicity of STAP3, STAP4, STAP7, and STAP11 on HUVECs was assessed using MTT assay on manufacturer's instructions ([34]). In brief, HUVECs received the incubation in 96-well plates at a density of 0.8 × 10^4 cells per well with 180 μl completed DMEM. Following the confluence of 50–60% in the 96-well plates, cells were treated with 20 μl peptides under-designed concentrations (100, 200, and 400 μM) and further cultured for 24 h at 37°C. Subsequently, cells were added with 20 μL MTT solutions (5 mg/mL) and incubated for 4 h. Finally, DMSO was added into each well and the absorbance (A) at 490 nm was determined. The cell viability was calculated as:
Cell viability(% of blank control)=(Aexperiment group/Acontrol group)×100.

[4] = test system: ACE; details: cited from earlier work; for IC50: data in the AHTPDB database, read-out: IC50 (ACEi ability)
Description: Then, Ser residue, especially its hydroxyl group, should play a vital effect on the ACEi capability of STAP4, STAP7, and STAP11 ([67]). Yust et al. made clear that short peptide sequences ...

[5] = 100, 200 and 400 μM, 24 h, MTT, % of blank control

Which NO level ([1]; Cap 1 μM, positive control) does the source give for C[C@H](CS)C(=O)N1CCC[C@H]1C(=O)O [Cap, captopril] here?
The NO level was 65.96 ± 1.83 μmol/gprot.

For NC[C@H](O)c1ccc(O)c(O)c1 [NE, norepinephrine], which NO level ([1]; NE 0.5 μM) is on record?
Its NO level is 24.25 ± 0.63 μmol/gprot.

And the ET-1 secretion [2]?
The ET-1 secretion was 140.23 ± 5.81 pg/mL.

With C[C@@H](O)[C@H](N)C(=O)N[C@@H](CCC(=O)O)C(=O)O [STAP1, Thr-Glu] (H-Thr-Glu-OH) as the molecule, how does the cell viability ([3]; 100 µM, SD) read?
Its cell viability is 108.52 ± 5.19%.

Which cell viability [3, 5] does the source give for CSCC[C@H](N)C(=O)N[C@@H](CCC(=O)O)C(=O)N[C@@H](CCCCN)C(=O)N[C@@H](CO)C(=O)O [STAP4, Met-Glu-Lys-Ser] (H-MEKS-OH) here?
Its cell viability is “no significant influence on the proliferation of HUVECs”.

Which cell viability [3, 5] does the source give for CSCC[C@H](N)C(=O)N[C@@H](CCCCN)C(=O)N[C@@H](CCCCN)C(=O)N[C@@H](CO)C(=O)O [STAP7, Met-Lys-Lys-Ser] (H-MKKS-OH) here?
Its cell viability is “no significant influence on the proliferation of HUVECs”.

Which cell viability ([3]; 400 µM, SD) does the source give for CC(C)C[C@H](N)C(=O)N1CCC[C@H]1C(=O)N[C@@H](CCCNC(=N)N)C(=O)N[C@@H](CO)C(=O)O [STAP11, Leu-Pro-Arg-Ser] (H-LPRS-OH) here?
The cell viability was 91.07 ± 1.36%.

What about the cell viability [3, 5] of the same molecule?
The cell viability was “no significant influence on the proliferation of HUVECs”.

Which “IC50 (ACEi)” value ([4]; peptides from stone fish) does the source give for EHPVL [ACEi peptide from stone fish] here?
Its value is 1680 µg/mL.

With EVLIQ [ACEi peptide from stone fish] as the molecule, how does the “IC50 (ACEi)” value ([4]; peptides from stone fish) read?
The value was 1440 µg/mL.

Which IC50 [4] does the source give for “IRWCT [ACEi peptide in the AHTPDB database]” here?
The IC50 was 1000 nM.

With LAPPTM [ACEi peptide from stone fish] as the molecule, how does the “IC50 (ACEi)” value ([4]; peptides from stone fish) read?
Its value is 1310 µg/mL.

Which results are given for “LGPLGHQ [ACEi peptide from skate (Okamejei kenojei)]”?
IC50 (ACEi) ([4]; peptides from Okamejei kenojei): 3490 µg/mL; IC50 (ACEi) ([4]; peptides from skate): 4220 µg/mL

With “MIFPGAGGPEL [ACEi peptide in the AHTPDB database]” as the molecule, how does the IC50 [4] read?
The IC50 was 30 nM.

Which results are given for “MVGSAPGVL [ACEi peptide from skate (Okamejei kenojei)]”?
IC50 (ACEi) ([4]; peptides from Okamejei kenojei): 3090 µg/mL; IC50 (ACEi) ([4]; peptides from skate): 3090 µg/mL

For “PYVRYL [ACEi peptide in the AHTPDB database]”, which IC50 [4] is on record?
Its IC50 is 1900 nM.

Which “IC50 (ACEi)” value ([4]; peptide from Saurida elongate) does the source give for “RYRP [ACEi peptide from protein hydrolysate of Saurida elongate]” here?
The value was 3350 µg/mL.

Which IC50 [4] does the source give for “VFPS [ACEi peptide in the AHTPDB database]” here?
The IC50 was 460 nM.

Which “IC50 (ACEi)” value ([4]; peptides from Antarctic krill) does the source give for “WRKER [ACEi peptide from Antarctic krill]” here?
The value was 3285 µg/mL.
